Data taken from paper PMC12190736, “Development and In Vitro Characterization of [^3H]GMC-058 as Radioligand for Imaging Parkinsonian-Related Proteinopathies” (Cells, 2025).

Key:
[1] = system: fresh-frozen human brain sections; assay: Autoradiography on fresh-frozen brain tissue sections; type: binding; conditions: for NSB: 5 µM GMC044; for Specific binding relative to displaceable binding in controls: on average
Procedure: Selections of frozen human sections (described in Table 2 and Table 3) were used for binding autoradiography. Sections were first pre-incubated for 20 min in binding buffer [50 mM Tris-HCl (pH 7.4), 120 mM NaCl, 5 mM KCl, 2 mM CaCl2, 1 mM MgCl2, and 0.1% BSA] and then incubated with [^3H]GMC-058 (specific activity 22 Ci/mmol); [^3H]GMC-073 (specific activity 23.4 Ci/mmol); or […] in binding buffer for 180 min at RT. In the pilot autoradiography experiment (Figure A1). [^3H]GMC-058 was tested at 25 and 50 nM, while [^3H]GMC-073 and [^3H]GMC-098 were each tested at 10 and 20 nM. For all other autoradiography in fresh-frozen tissue sections, 25 nM [^3H]GMC-058 was used. To determine NSB, adjacent brain sections were incubated with [^3H]-tracer mixed with 5 μM of unlabeled GMC-044. The binding reaction was stopped with two 10 min washes in washing buffer [50 mM Tris-HCl (pH 7.4) at 4 °C] and a brief dip in cold distilled water. Slides were allowed to air-dry before being placed under storage phosphor screens (Fujifilm Plate BAS-TR2025, Fujifilm, Tokyo, Japan) in imaging cassettes for 90 h together with ART0123C and ART0123B tritium standards on glass slides (American Radiolabeled Chemicals Inc., St. Louis, MO, USA). Storage phosphor screens were scanned using an Amersham Typhoon FLA-9500 phosphor imaging scanner (Cytiva, Marlborough, MA, USA), and the resulting images were analyzed using Multi Gauge 3.2 phosphor imager software (Fujifilm, Tokyo, Japan) for ROI delimitation, density calibration, and quantification. Quantitative binding data from duplicates of the total, and NSB were plotted and analyzed using graphPad Prism v10 (GraphPad Software, Boston, MA, USA). Specific binding was determined by subtracting the non-specific signal from the total signal. The toluidine blue staining of adjacent sections was used to obtain anatomical references for white- and gray-matter ROI selection. Care was taken not to include artifact signals in the ROIs analyzed. These artifacts were identified as randomly placed punctate signals appearing in both total and NSB images, and they often coincided with small folds or tears in the tissue sections.

[2] = target: AD, PSP, CBD, MSA-P, PD and control brain homogenates; assay: Saturation binding assays with [^3H]GMC-058 in brain homogenates
Procedure: For AD, CBD, PSP, and CT cases, the frozen tissue blocks were prepared as described by Stehouwer et al. [13]. In brief, tissue blocks were thawed and homogenized in ice-cold pH 7.0 phosphate-buffered saline (PBS) at 300 mg/mL on ice using a glass homogenizer, diluted 30-fold with PBS to 10 mg/mL, and homogenized a second time with a Brinkmann Polytron homogenizer before storage at −80 °C.
After incubation, samples were filtered under vacuum on equilibrated GF/B UniFilter plates (PerkinElmer) using the FilterMate 196 (PerkinElmer). Afterwards, filters were washed three times with 250 μL chilled buffer (PBS + 20% EtOH). [^3H]GMC-058 binding was measured with a beta scintillation counter (PerkinElmer). The saturation data was fitted and analyzed using the non-linear regression function of GraphPad Prism 10 software to calculate the dissociation constant (KD) and maximum number of binding sites (Bmax). Scatchard plots were prepared with GraphPad Prism 10 software to display the saturation binding data.

[3] = 25 nM radioligand, gray matter of cingulate cortex, control C03
[4] = 25 nM, PD1, cingulate gyrus, GM
[5] = 25 nM, PD1, cingulate gyrus, WM
[6] = 25 nM, PD2, cingulate gyrus, GM
[7] = 25 nM, PD2, cingulate gyrus, WM
[8] = 25 nM, PD3, cingulate gyrus, GM
[9] = 25 nM, PD3, cingulate gyrus, WM
[10] = 25 nM, non-dementia control C01, cingulate gyrus, GM
[11] = 25 nM, non-dementia control C01, cingulate gyrus, WM
[12] = 25 nM, non-dementia control C02, cingulate gyrus, GM
[13] = 25 nM, non-dementia control C02, cingulate gyrus, WM
[14] = 25 nM, non-dementia control C03, cingulate gyrus, GM
[15] = 25 nM, non-dementia control C03, cingulate gyrus, WM
[16] = 50 nM radioligand, gray matter of cingulate cortex, control C03

SMILES: [3H]c1cc(N2CCN(c3ccc(NC(=O)C(C)(C)C)cc3)CC2)ccc1OC [[^3H]GMC-058, N-(4-(4-(4-methoxy-[3-3H]phenyl)piperazin-1-yl)phenyl)pivalamide]
- NSB [1, 3]: 37.6 ± 3.8 fmol/mg tissue equivalent
- Total Minus NSB [1, 3]: 20 fmol/mg
- Total binding [1, 3]: 57.6 ± 1.8 fmol/mg tissue equivalent
- Specific Binding ([1]; 25 nM, CBD1 block 1, SFG, GM): 50 fmol/mg tissue equivalent
- Specific Binding ([1]; 25 nM, CBD1 block 1, SFG, WM): 29 fmol/mg tissue equivalent
- Specific Binding ([1]; 25 nM, CBD1 block 2, SFG, GM): 32 fmol/mg tissue equivalent
- Specific Binding ([1]; 25 nM, CBD1 block 2, SFG, WM): 130 fmol/mg tissue equivalent
- Specific binding relative to displaceable binding in controls ([1]; 25 nM, CBD, gray matter of superior frontal gyrus): three-fold
- NSB (5 µM GMC044) ([1]; 25 nM, MSA1, cerebellum, GM): 27.4 fmol/mg tissue equivalent
- Total Minus NSB ([1]; 25 nM, MSA1, cerebellum, GM): 19.5 fmol/mg tissue equivalent
- Total binding ([1]; 25 nM, MSA1, cerebellum, GM): 46.9 fmol/mg tissue equivalent
- NSB (5 µM GMC044) ([1]; 25 nM, MSA1, cerebellum, WM): 33.3 fmol/mg tissue equivalent
- Total Minus NSB ([1]; 25 nM, MSA1, cerebellum, WM): 16.8 fmol/mg tissue equivalent
- Total binding ([1]; 25 nM, MSA1, cerebellum, WM): 50.1 fmol/mg tissue equivalent
- NSB (5 µM GMC044) ([1]; 25 nM, MSA2, cerebellum, GM): 19.9 fmol/mg tissue equivalent
- Total Minus NSB ([1]; 25 nM, MSA2, cerebellum, GM): 10.3 fmol/mg tissue equivalent
- Total binding ([1]; 25 nM, MSA2, cerebellum, GM): 30.3 fmol/mg tissue equivalent
- NSB (5 µM GMC044) ([1]; 25 nM, MSA2, cerebellum, WM): 27.7 fmol/mg tissue equivalent
- Total Minus NSB ([1]; 25 nM, MSA2, cerebellum, WM): 24.8 fmol/mg tissue equivalent
- Total binding ([1]; 25 nM, MSA2, cerebellum, WM): 52.5 fmol/mg tissue equivalent
- Specific Binding ([1]; 25 nM, MSA3, cerebellum, GM): 26 fmol/mg tissue equivalent
- Specific Binding ([1]; 25 nM, MSA3, cerebellum, WM): 21 fmol/mg tissue equivalent
- Specific Binding ([1]; 25 nM, MSA4, cerebellum, GM): 23 fmol/mg tissue equivalent
- Specific Binding ([1]; 25 nM, MSA4, cerebellum, WM): 49 fmol/mg tissue equivalent
- Specific Binding ([1]; 25 nM, NDE C03, cingulate cortex, GM): 15 fmol/mg tissue equivalent
- Specific Binding ([1]; 25 nM, NDE C03, cingulate cortex, WM): −2 fmol/mg tissue equivalent
- Specific Binding ([1]; 25 nM, NDE C04, caudate, GM): 8 fmol/mg tissue equivalent
- Specific Binding ([1]; 25 nM, NDE C04, caudate, WM): −1 fmol/mg tissue equivalent
- Specific Binding ([1]; 25 nM, NDE C04, globus pallidus, GM): 10 fmol/mg tissue equivalent
- Specific Binding ([1]; 25 nM, NDE C04, globus pallidus, WM): 0 fmol/mg tissue equivalent
- Specific Binding ([1]; 25 nM, NDE Co4, putamen, GM): 12 fmol/mg tissue equivalent
- Specific Binding ([1]; 25 nM, NDE Co4, putamen, WM): 4 fmol/mg tissue equivalent
- NSB (5 µM GMC044) [1, 4]: 42.3 fmol/mg tissue equivalent
- Total Minus NSB [1, 4]: 13.3 fmol/mg tissue equivalent
- Total binding [1, 4]: 55.6 fmol/mg tissue equivalent
- NSB (5 µM GMC044) [1, 5]: 50.6 fmol/mg tissue equivalent
- Total Minus NSB [1, 5]: 1.9 fmol/mg tissue equivalent
- Total binding [1, 5]: 52.5 fmol/mg tissue equivalent
- NSB (5 µM GMC044) [1, 6]: 17.1 fmol/mg tissue equivalent
- Total Minus NSB [1, 6]: −0.9 fmol/mg tissue equivalent
- Total binding [1, 6]: 16.2 fmol/mg tissue equivalent
- NSB (5 µM GMC044) [1, 7]: 53.7 fmol/mg tissue equivalent
- Total Minus NSB [1, 7]: 1.6 fmol/mg tissue equivalent
- Total binding [1, 7]: 55.4 fmol/mg tissue equivalent
- NSB (5 µM GMC044) [1, 8]: 42.0 fmol/mg tissue equivalent
- Total Minus NSB [1, 8]: 17.2 fmol/mg tissue equivalent
- Total binding [1, 8]: 59.3 fmol/mg tissue equivalent
- NSB (5 µM GMC044) [1, 9]: 47.1 fmol/mg tissue equivalent
- Total Minus NSB [1, 9]: 8.3 fmol/mg tissue equivalent
- Total binding [1, 9]: 55.4 fmol/mg tissue equivalent
- Specific Binding ([1]; 25 nM, PSP1, GP, GM): 102 fmol/mg tissue equivalent
- Specific Binding ([1]; 25 nM, PSP1, GP, WM): 32 fmol/mg tissue equivalent
- Specific Binding ([1]; 25 nM, PSP2, GP, GM): 118 fmol/mg tissue equivalent
- Specific Binding ([1]; 25 nM, PSP2, GP, WM): −1 fmol/mg tissue equivalent
- Specific binding relative to displaceable binding in controls ([1]; 25 nM, PSP, gray matter of globus pallidus): ten-fold
- Specific binding versus controls ([1]; 25 nM, cingulate cortex of controls and PD patients, cerebellum of MSA patients): did not show clear evidence of specific binding higher than the displaceable (off-target) binding in controls
- NSB (5 µM GMC044) [1, 10]: 60.3 fmol/mg tissue equivalent
- Total Minus NSB [1, 10]: −3.5 fmol/mg tissue equivalent
- Total binding [1, 10]: 56.8 fmol/mg tissue equivalent
- NSB (5 µM GMC044) [1, 11]: 59.8 fmol/mg tissue equivalent
- Total Minus NSB [1, 11]: −2.9 fmol/mg tissue equivalent
- Total binding [1, 11]: 56.9 fmol/mg tissue equivalent
- NSB (5 µM GMC044) [1, 12]: 24.6 fmol/mg tissue equivalent
- Total Minus NSB [1, 12]: 19.8 fmol/mg tissue equivalent
- Total binding [1, 12]: 44.3 fmol/mg tissue equivalent
- NSB (5 µM GMC044) [1, 13]: 31.8 fmol/mg tissue equivalent
- Total Minus NSB [1, 13]: 13.6 fmol/mg tissue equivalent
- Total binding [1, 13]: 45.3 fmol/mg tissue equivalent
- NSB (5 µM GMC044) [1, 14]: 28.6 fmol/mg tissue equivalent
- Total Minus NSB [1, 14]: 16.7 fmol/mg tissue equivalent
- Total binding [1, 14]: 45.3 fmol/mg tissue equivalent
- NSB (5 µM GMC044) [1, 15]: 39.0 fmol/mg tissue equivalent
- Total Minus NSB [1, 15]: 9.7 fmol/mg tissue equivalent
- Total binding [1, 15]: 48.7 fmol/mg tissue equivalent
- Specific binding relative to average displaceable binding in gray matter of controls ([1]; 25 nM, two MSA cases, cerebellar gray matter): two-fold higher
- Average specific binding ([1]; 25 nM, white matter of MSA and CBD cases): 35 to 80 fmol/mg
- Specific Binding ([1]; 25 nM, white matter of control cases): No specific binding
- NSB [1, 16]: 74.6 ± 4.1 fmol/mg tissue equivalent
- Total Minus NSB [1, 16]: 40 fmol/mg
- Total binding [1, 16]: 114.1 ± 9.3 fmol/mg tissue equivalent
- Binding displaced by GMC-044 ([1]; 5 µM GMC-044, control cingulate cortex tissue): ~ 65%
- Binding in control tissue ([1]; cingulate cortex of healthy controls): negligible binding
- Kd ([2]; AD brain homogenates): 0.0054 µM
- Kd ([2]; CBD brain homogenates): > 0.05 µM
- Saturation binding ([2]; PD tissue): No evidence of saturation binding
- Kd ([2]; PSP brain homogenates): > 0.05 µM
- Kd ([2]; control brain homogenates): > 0.1 µM
